Measurements reported in article PMC7938888, “Antidepressant drugs act by directly binding to TRKB neurotrophin receptors” (Cell, 2021).

B1: BDNF: brain-derived neurotrophic factor, TRKB ligand (protein, UniProt P23560 19-247, looked up)
Neurotrophic factor BDNF …: APMKEANIRGQGGLAYPGVRTHGTLESVNGPKAGSRGLTSLADTFEHVIEELLDEDQKVRPNEENNKDADLYTSRVMLSSQVPLEPPLLFLLEEYKNYLDAANMSMRVRRHSDPARRGELSVCDSISEWVTAADKKTAVDMSGGTVTVLEKVPVSKGQLKQYFYETKCNPMGYTKEGCRGIDKRHWNSQCRTTQSYVRALTMDSKKRIGWRFIRIDTSCVCTLTIKRGR

Columns and labels:
[1] = target: TRKB (Mus musculus, UniProt P15209); experiment: Cell-free ligand binding assay on immobilised TRKB from HEK293T lysates; set-up: wild-type GFP-tagged full length TRKB or the GFP-tagged Y433F TRKB mutant; host or cells: HEK293T; conditions: for displacement of biotinylated FLX from TRKB: biotinylated FLX 1 μM
[2] = test system: GFP-TRKB; experiment: FRAP of GFP-TRKB in dendritic spines of hippocampal neurons; assay type: cell-based, rat; conditions: BDNF 20 ng/mL, FLX 1 μM, KET 10 μM; 15 min pretreatment
[3] = test system: GFP-TRKB.Y433F; experiment: FRAP of GFP-TRKB.Y433F in dendritic spines of hippocampal neurons; assay type: cell-based, rat; conditions: BDNF 20 ng/mL, FLX 1 μM, KET 10 μM; 15 min
Procedure: For the fluorescence recovery after photobleaching (FRAP) experiments, E18 rat embryo hippocampal cells were plated onto glass coverslips coated with poly-L-lysine (Sigma-Aldrich) in 4-well cell culture plates at a density of 200.000 cells/well. The cultures were incubated at +37°C in serum-free Neurobasal medium (supplemented with 2% B27, 1% L-glutamine and 1% ampicillin) for approximately 2 weeks (DIV 14-16), renewing half of the growth media weekly. Then, they were transfected with Lipofectamine 2000 (Invitrogen) in order to overexpress GFP-tagged TRKB constructs (TRKB.WT or TRKB.Y433F). The cultures were incubated with the transfection mix (per well: 50ul neurobasal medium, 1ul Lipofectamine 2000, 1ug plasmid DNA) in serum-free media for 1.5 hours, followed by 3x medium washes and returned to the original growth medium after that. The cells were left at +37°C o/n to overexpress the constructs ([Koskinen et al., 2012]). Next day, FRAP was performed with a confocal microscope (Zeiss LSM 710, Carl Zeiss AG) adapted for live cell imaging with a chamber set at +37°C and 5%CO2 (Zeiss Temp Module system, Carl Zeiss AG). Coverslips with the cultured hippocampal neurons were carefully transferred to 35mm Petri dishes with warm HBSS medium without phenol red or serum to avoid sources of background fluorescence. After a 10 minutes adaptation period in the microscope chamber to avoid focus drift caused by temperature fluctuations of the stage and objective, dendritic shafts or spines (spine head diameter = ∼1um) were localized with a 63x/0.90 NA dipping water objective. Picture format was 512x512 pixels. The nominal speed to capture images was set to 9 (pixel dwell 3.15 μseconds, taking approximately 0.5 s to finish a scan), and the pinhole aperture was set to completely open to obtain a strong fluorescent signal ([Koskinen et al., 2012]; [Zheng et al., 2011]). Once a region of interest (ROI) was selected with a circle that contained the whole spine, it was bleached to establish the FRAP baseline. […]

TRKB, sequence (P15209 32-821): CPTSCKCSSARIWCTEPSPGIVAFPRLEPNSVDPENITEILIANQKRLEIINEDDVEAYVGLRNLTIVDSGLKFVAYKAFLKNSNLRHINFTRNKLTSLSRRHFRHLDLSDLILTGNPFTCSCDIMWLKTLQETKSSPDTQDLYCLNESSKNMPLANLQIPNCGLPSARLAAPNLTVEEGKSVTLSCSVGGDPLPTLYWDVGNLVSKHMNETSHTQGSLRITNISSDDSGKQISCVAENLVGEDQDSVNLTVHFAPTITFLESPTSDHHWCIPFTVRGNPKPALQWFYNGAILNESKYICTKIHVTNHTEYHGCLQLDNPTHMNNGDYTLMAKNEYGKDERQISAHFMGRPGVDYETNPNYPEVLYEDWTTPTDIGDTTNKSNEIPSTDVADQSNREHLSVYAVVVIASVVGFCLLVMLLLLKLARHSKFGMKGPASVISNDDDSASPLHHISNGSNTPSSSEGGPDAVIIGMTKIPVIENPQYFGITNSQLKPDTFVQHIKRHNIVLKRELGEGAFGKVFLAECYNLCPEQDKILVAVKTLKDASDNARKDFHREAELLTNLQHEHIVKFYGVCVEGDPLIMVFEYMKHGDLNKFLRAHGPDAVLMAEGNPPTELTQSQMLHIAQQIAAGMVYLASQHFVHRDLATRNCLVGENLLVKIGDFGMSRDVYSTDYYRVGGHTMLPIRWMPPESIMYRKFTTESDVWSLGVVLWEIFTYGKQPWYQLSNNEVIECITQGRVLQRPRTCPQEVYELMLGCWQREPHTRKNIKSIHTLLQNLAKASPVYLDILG

Molecule | effect on interaction of biotinylated FLX and R,R-HNK with TRKB [1] | recovery of GFP-TRKB fluorescence in dendritic spines after bleaching [2] | fluorescence of GFP-TRKB.Y433F in dendritic spines after bleaching [3] | Ki [1] [µM] | displacement of biotinylated FLX from TRKB [1] | Kd ([1]; TRKB.wt, read-out: binding affinity of BDNF) [pM]
CC(C)CCC[C@@H](C)[C@H]1CC[C@H]2[C@@H]3CC=C4C[C@@H](O)CC[C@]4(C)[C@H]3CC[C@]12C [CHOL, cholesterol] | increased the interaction of these compounds with TRKB | – | – | – | – | –
CNCCC(Oc1ccc(C(F)(F)F)cc1)c1ccccc1 (centres unmarked) [FLX, fluoxetine] | – | promoted recovery of GFP-TRKB fluorescence in dendritic spines | Neither BDNF, FLX, nor KET increased the fluorescence | – | – | –
CNC1(c2ccccc2Cl)CCCCC1=O (centres unmarked) [KET, ketamine] | – | promoted recovery of GFP-TRKB fluorescence in dendritic spines | Neither BDNF, FLX, nor KET increased the fluorescence | 12.3 | readily displaced | –
B1 | – | rapid recovery of GFP-TRKB fluorescence in spines | Neither BDNF, FLX, nor KET increased the fluorescence | – | failed to displace | 3.1
